Test results as given in patent US9839614B2, “Nanoparticle and polymer formulations for thyroid hormone analogs, antagonists, and formulations and uses thereof” (NANOPHARMACEUTICALS LLC, priority 2009, dated 2017).
Several values for one entry are separate records, joined by “and”; a condition that tells them apart may be missing. Equal entries are not always repeated.

How the values were obtained:
[1] = Solubility; type: physicochemical
Method: Yield: 50%; off-white solid; recrist. solvent.: EtOH; TLC: Rf=0.43 (EtOAc/EtOH 9/1); RPTLC: Rf=0.43 (AcOH/H2O 8/2); mp=136° C.; IR (υ cm^−1): 1730 (CO); ^1H NMR (DMSO-d 6) δ (ppm): 7.79 (s, 2H, ArH), 7.14 (s, 2H, ArH), 4.06-4.02 (m, 2H, CH2), 3.93-3.89 (q, J=7.0 Hz, 2H, CH2), 3.59-3.56 (t, J=7.0 Hz, 1H, CH), 2.80-2.77 (m, 2H, CH2), 1.88 (br, 1H, NH), 1.41-1.39 (t, J=7.0 Hz, 3H, CH3), 1.15-1.12 (t, J=7.0 Hz, 3H, CH3); MS (ESI+) m/z 911.7[(M+DMSO)^+, 100], 833.7 [(M+H)+, 75]; Anal. Calcd. for C19H19I4NO4: C, 27.40; H, 2.30; N, 1.68. Found: C, 27.54; H, 1.94; N, 1.66. Solubility 10^−3M in water after preparing a solution at 10^−1M in DMSO.
When looking at the amorphous state, the solid was not stable and quickly returned to the crystal state. Thus, Tetrac was used as a salt with Na^+ as the counterion which reduced the use of DMSO to 10%. Then all analogs were solubilized with 10% DMSO in water for the TiPS protected analogs and in PBS for the others.

[2] = tested on: MDA-MB-231 cells gene expression; test: RNA microarray of MDA-MB-231 cells (Example 17); type: cell-based, human; conditions: 24 h
Method: Expression of ˜54,000 transcripts was analyzed in control and drug-treated cultures, using Affymetrix Human Genome U133 plus 2.0 microarrays. Subsequent analysis was focused on genes affected by treatment at p<0.01. There was 93% concordance between Tetrac and Tetrac NP in terms of genes affected; notable disparities included downregulation of epidermal growth factor receptor (EGFR) by Tetrac NP and no affect of unmodified Tetrac on this gene.

[3] = tested on: GL261 murine brain tumor cells; test: GL261 growth curve, cell volumes/areas and colony forming efficiency; type: cell-based
Method: 1×10^5 cells per 25 cm^2 flask at time zero (density 40 cells/mm^2). Three flasks were utilized at each time period. The medium in the flasks was not changed over the duration of the growth curve (unfed cultures). Data were taken daily from day zero to day 11.5 post-seeding and cell numbers, age distributions, and apoptotic percentages were determined. After growth curve shapes (without and with 2 μM tetrac) were determined, irradiation times at 70 and 270 hour post-seeding were chosen.
To obtain exponential and plateau phase cell numbers, we trypsinized ([…] trypsin-EDTA) cells for 5 min at 37° C.
For determination of CCDTs, the cell numbers per flask were determined on a daily basis. A four-day interval in the exponential region of growth to obtain the CCDTs, yielding a total of 12 estimations for analysis was utilized. A regression analysis was performed using the (log) of the cell number versus the linear time in days (SigmaPlot, V. 10, Systat Software, Inc., Point Richmond, Calif.). The log slope value and its standard error (SE) were determined, and the SE was converted to the 95% confidence limits using a two-tailed t-table at N−1 degrees of freedom where N is the number of samples. (See Goldstein, A. In: Biostatistics, New York, The MacMillan Co., 1964, p. 140-146).

[4] = tested on: GL261 murine brain tumor cells; test: GL261 potentially lethal damage repair (PLDR); type: cell-based
Method: PLDR was also measured using the 10% survival level in both control and Tetrac treated-cells, and was also done for both exponentially growing and plateau phase cells. The total 10% survival dose was given, and then cells were placed back into the 37° C. incubator for various periods of time. At 0, 0.5, 1.0, 1.5, 2.0, 3.0, 4.0, 6.0, 8.0, and 10.0 hours, flasks were removed, and processed for survival assessment.
To investigate the effects of tetrac on SLDR and PLDR, cells were chosen that had been given a one-hour treatment with tetrac at two different times, i.e., at 70 and 270 hours post-seeding).

[5] = tested on: SKN-SH, SaOS2 and MCF7 cells, drug-sensitive and -resistant; test: Proliferation of drug-sensitive versus drug-resistant cancer cells (MTT assay); type: cell-based; conditions: 4 days
Method: Drug-sensitive and -resistant SKN-SH (FIGS. 13C-D), SaOS2 (FIGS. 13A-B), and MCF7 (FIGS. 13E-F) cells were subjected to treatment with increasing concentrations of Tetrac or Doxirubicin over a period of 4 days. Cell viability was then measured by MTT assay. The data represent the average of 4 determinations±SE.
Doxorubicin resistant SKN-SH/R, MCF7/R and SaOS2/R cells were subjected to treatment with Tetrac either alone or in combination with each of doxorubicin (Dox), etoposide (Etop), cisplatin (Cisp), or trichostatin A (TSA) at the indicated concentrations, After 4 days in cell viability was determined by the MTT assay and the data represented as average of 3 determinations±SE.

[6] = tested on: human medullary carcinoma of the thyroid (MTC) xenografts; test: MTC xenograft in nude mice; conditions: over the course of administration
Method: Human medullary carcinoma cells (TT, Catalog No. CRL-1803) were purchased from American Type Culture Collection (Manassas, Va.) and cultured as instructed by the supplier, using a complete growth medium consisting of F-12K medium with 10% FBS. Cells were cultured in 5% CO2/air atmosphere at 37 C to sub-confluence and then treated with 0.25% (w/v) trypsin/EDTA to affect cell release from the culture vessel. After washing with culture medium, the cells were suspended in DMEM (free of phenol red and FBS) and counted. • Tetrac versus tetrac NP distribution in h-MTC. […] Female NCr nude homozygous mice aged 5-6 weeks and body weights of 20 g were purchased form Taconic Farms (Hudson N.Y.). Animals were maintained under specific pathogen-free conditions and housed 4 animals per cage, under controlled conditions of temperature (20-24° C.) and humidity (60-70%) and a 12 h light/dark cycle. Water and food were provided ad libitum.

O=C(O)Cc1cc(I)c(Oc2cc(I)c(O)c(I)c2)c(I)c1 [Tetrac, tetraiodothyroacetic acid]
solubility in water [1]: difficult to solubilize in water | Change: CDKN2C ([2]; 10^−7M (Tetrac equivalent), hormone-stripped serum): ↑ | Change: BCL2L14 ([2]; 10^−7M): ↑ | Change: CASP2 ([2]; 10^−7M): ↑ | Change: CBY1 ([2]; 10^−7M): ↑ | Change: CTNNA1 ([2]; 10^−7M): ↓ | Change: CTNNA2 ([2]; 10^−7M): ↓ | Change: CTSL1 ([2]; 10^−7M): ↓ | Change: CXCL10 ([2]; 10^−7M): ↑ | Change: Cyclins ([2]; 10^−7M): ↓ | Change: EDN1 ([2]; 10^−7M): ↑ | Change: Interleukins ([2]; 10^−7M): ↓ | Change: MCL1 ([2]; 10^−7M): ↓ | Change: NR1D1 ([2]; 10^−7M): ↓ | Change: THBS1 ([2]; 10^−7M): ↑ | Change: XIAP ([2]; 10^−7M): ↓ | epidermal growth factor receptor (EGFR) expression ([2]; 10^−7M): no affect | decrease of final saturation density ([3]; 2 μM Tetrac): about 50% | saturation density of control relative to tetrac-treated cells ([3]; 2 μM Tetrac): approximately 2.4 times | cell culture doubling time, Tetrac-treated GL261 cells ([3]; 2 μM Tetrac, exponential growth): 43.8 ± 3.8 h and 43.8 h | onset of exponential growth ([3]; 2 μM Tetrac, control 20 hours): about 40 hours | Mean nuclear area (μm^2) ([3]; Exponential Cells (+Tetrac)): 1180 μm^2 | Median Volume (μm^3) ([3]; Exponential Cells (+Tetrac)): 3850 μm^3 | Median cell area (μm^2) ([3]; Exponential Cells (+Tetrac)): 2814 μm^2 | nuclear/cell area (%) ([3]; Exponential Cells (+Tetrac)): 42% | Mean nuclear area (μm^2) ([3]; Plateau phase Cells (+Tetrac)): 310 μm^2 | Median Volume (μm^3) ([3]; Plateau phase Cells (+Tetrac)): 2780 μm^3 | Median cell area (μm^2) ([3]; Plateau phase Cells (+Tetrac)): 700 μm^2 | nuclear/cell area (%) ([3]; Plateau phase Cells (+Tetrac)): 44% | CFE (%) ([3]; Plateau phase Cells (+Tetrac), with feeder cells): 8.8% | cell size relative to control GL261 cells ([3]; exponential phase): 1.4 times | cell size relative to control GL261 cells ([3]; plateau phase): 1.9 times | factor of inhibition of PLDR ([4]; exponential cells): 1.9 | factor of decrease of PLDR expression ([4]; plateau phase cells): 3.4 | anti-proliferative activity against drug-sensitive and drug-resistant cells ([5]; MTT): equivalent anti-proliferative activity | cellular responses to doxorubicin, etoposide, cisplatin and TSA combined with Tetrac ([5]; resistant cells): significantly enhanced | decrease in tumor tissue hemoglobin content [6]: 66%
